Values quoted from earlier work as cited in patent US8470831B2, “Acrylamido derivatives useful as inhibitors of the mitochondrial permeability transition” (Cogenia SRL, priority 2008, dated 2013).

Assays:
[1] = system: rat liver mitochondrial membranes
[2] = mouse, myocardial infarction and reperfusion injury
[3] = mdx and Scgd-/- mice
[4] = patients, one month treatment
[5] = rat, TNF-α-dependent acute inflammatory hepatitis
[6] = rat, transient focal cerebral ischemia

Compound: COc1ccc(CN2CCN(CCCSc3cc(C(C)(C)C)c(O)c(C(C)(C)C)c3)CC2)c(OC)c1OC [Compound S-15176, N-[(3,5-di-tert-butyl-4-hydroxy-1-thiophenyl)]-3-propyl-N′-(2,3,4-trimethoxybenzyl)piperazine]
- mitochondrial membrane depolarization and respiration uncoupling [1]: induces depolarization of the mitochondrial membrane and respiration uncoupling

Compound: C/C=C/C[C@@H](C)[C@@H](O)[C@H]1C(=O)N[C@@H](CC)C(=O)N(C)[C@H](C)C(=O)N(CC)[C@@H](C(C)C)C(=O)N[C@@H](C(C)C)C(=O)N(C)[C@@H](CC(C)C)C(=O)N[C@@H](C)C(=O)N[C@H](C)C(=O)N(C)[C@@H](CC(C)C)C(=O)N(C)[C@@H](CC(C)C)C(=O)N(C)[C@@H](C(C)C)C(=O)N1C [Debio-025]
- infarct size [2]: reduced infarct size
- mitochondrial swelling and necrotic disease [3]: reduced mitochondrial swelling and necrotic disease

Compound: Cyclosporin A
- mitochondrial function [4]: amelioration of mitochondrial function
- liver damage [5]: strongly reduces liver damage

Compound: C/C=C/C[C@@H](C)[C@@H](O)[C@H]1C(=O)N[C@@H](CC)C(=O)N(C)CC(=O)N(C)[C@@H]([C@@H](C)CC)C(=O)N[C@@H](C(C)C)C(=O)N(C)[C@@H](CC(C)C)C(=O)N[C@@H](C)C(=O)N[C@H](C)C(=O)N(C)[C@@H](CC(C)C)C(=O)N(C)[C@@H](CC(C)C)C(=O)N(C)[C@@H](C(C)C)C(=O)N1C [NIM811]
- protection [6]: 40%
